Calls of active or inactive are those of the source.
Experiments:
[1] = target: T1, Cytochrome P450 1A2 (Homo sapiens, UniProt P05177);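 also: PubChem cytochrome P450 panel assay, CYP1A2 panel member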
T1 sequence (P05177 whole entry): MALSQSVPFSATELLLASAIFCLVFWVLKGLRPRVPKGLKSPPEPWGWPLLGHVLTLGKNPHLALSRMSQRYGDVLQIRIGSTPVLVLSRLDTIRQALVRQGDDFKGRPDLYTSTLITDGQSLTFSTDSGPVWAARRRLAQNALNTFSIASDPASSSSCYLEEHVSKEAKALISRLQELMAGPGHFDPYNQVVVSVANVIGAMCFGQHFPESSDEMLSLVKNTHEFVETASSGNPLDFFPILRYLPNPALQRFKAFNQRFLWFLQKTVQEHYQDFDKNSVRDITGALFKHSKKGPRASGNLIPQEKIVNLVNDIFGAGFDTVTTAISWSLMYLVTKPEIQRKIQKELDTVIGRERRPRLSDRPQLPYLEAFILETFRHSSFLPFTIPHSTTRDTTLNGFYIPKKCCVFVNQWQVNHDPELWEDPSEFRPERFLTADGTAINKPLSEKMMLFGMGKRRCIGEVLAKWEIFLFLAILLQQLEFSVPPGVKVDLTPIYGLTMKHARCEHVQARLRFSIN

[2] = inhibitors of intracellular T. cruzi replication, confirmation, NIH3T3 host cells, beta-gal luminescence (AID 2044); format: functional, cell-based;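 also: intracellular parasites grown in NIH/3T3 mouse fibroblasts as host cells; luminescent beta-galactosidase reporter signal from transgenic T. cruzi replicating inside host cells; inhibitors lower the luminescence signal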
[3] = cytotoxicity toward NIH3T3 fibroblasts, dose response, counter-screen, cell-based, ATP luminescence, mouse fibroblasts (AID 2010); format: functional;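 also: cells exposed to compound for about 90 hours before reading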
[4] = target: Cytochrome P450 2C19 (Homo sapiens, UniProt P33261); assay: Cytochrome panel assay with activity outcomes. Panel member name: p450-cyp2c19 Compounds with AC50 equal or less than 10 uM are considered active; format: functional
[5] = system: Streptococcus sp. 'group A'; assay: growth inhibition of control SK(-) GAS strain, dose response, counter-screen for streptokinase expression inhibitor project, luminescence, kanamycin, BacTiterGlo, confirmation (AID 1900); format: functional, organism-based
[6] = system: Streptococcus; assay: Group A Streptococcus viability loss, dose response, counter-screen for streptokinase expression inhibitor project, luminescence, BacTiterGlo (AID 1915); format: functional, organism-based;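 also: potency for reduction of bacterial viability or growth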
[7] = target: T2, Streptokinase A (Streptococcus pyogenes serotype M1, UniProt P10520); assay: S. pyogenes streptokinase expression inhibitors, potency, dose response, plasminogen activation absorbance, OD405 (AID 1914); format: functional, Streptococcus pyogenes M1 GAS;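 also: secreted streptokinase activity via plasminogen activation per viability signal from cell pellet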
T2 sequence (P10520 whole entry): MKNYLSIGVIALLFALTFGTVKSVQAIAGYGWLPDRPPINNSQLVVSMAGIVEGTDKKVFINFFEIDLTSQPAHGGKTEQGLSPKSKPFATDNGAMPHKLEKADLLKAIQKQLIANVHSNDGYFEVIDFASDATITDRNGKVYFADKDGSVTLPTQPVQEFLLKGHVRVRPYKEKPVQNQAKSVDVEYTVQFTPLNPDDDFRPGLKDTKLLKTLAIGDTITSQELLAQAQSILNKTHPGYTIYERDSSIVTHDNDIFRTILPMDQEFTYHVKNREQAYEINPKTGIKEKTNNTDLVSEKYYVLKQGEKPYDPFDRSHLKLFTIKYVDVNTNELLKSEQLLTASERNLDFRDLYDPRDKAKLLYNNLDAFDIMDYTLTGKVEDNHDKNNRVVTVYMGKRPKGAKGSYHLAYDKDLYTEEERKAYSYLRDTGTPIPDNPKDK

[8] = system: H4; assay: Luminescence Cell-Based Dose Response HTS to Identify Activators of 5'UTR Stem-Loop Driven Prion Protein mRNA Translation in H4 Neuroglioblastoma Cells. [Related pubchem assays: 1829 (Project Summary), 1814 (Primary HTS)]; format: functional; conditions: Homo sapiens
[9] = Luminescence Cell-Based Dose Response HTS to Identify Activators of Luciferase Translation or Activity in H4 […] Cells. [Related pubchem assays: 1829 (Project Summary), 1814 (Primary HTS)]; format: functional

Sequence of Cytochrome P450 2C19 (P33261 whole entry): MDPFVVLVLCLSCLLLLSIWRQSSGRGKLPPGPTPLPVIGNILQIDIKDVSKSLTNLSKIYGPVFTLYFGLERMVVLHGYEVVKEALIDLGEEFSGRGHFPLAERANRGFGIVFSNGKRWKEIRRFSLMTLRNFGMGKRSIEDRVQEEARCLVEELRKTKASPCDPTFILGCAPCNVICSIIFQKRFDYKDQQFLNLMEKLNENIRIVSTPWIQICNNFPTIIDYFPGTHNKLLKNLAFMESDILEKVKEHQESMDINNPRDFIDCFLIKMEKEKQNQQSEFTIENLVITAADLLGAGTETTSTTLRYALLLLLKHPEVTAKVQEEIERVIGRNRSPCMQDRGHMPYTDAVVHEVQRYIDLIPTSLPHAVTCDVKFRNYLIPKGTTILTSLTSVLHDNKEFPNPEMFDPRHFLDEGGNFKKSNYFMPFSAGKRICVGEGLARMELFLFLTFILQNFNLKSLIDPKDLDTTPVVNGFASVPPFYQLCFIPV

NCCc1ccc(S(=O)(=O)F)cc1
AC50 [1]: 15.8 µM (inconclusive)

Cc1ccc(Nc2ccc([N+](=O)[O-])nc2[N+](=O)[O-])cc1
EC50 [2]: 1570 nM (active)
EC50 [3]: > 60 µM (not active)

CCOC(=O)c1cnn(-c2cc(Oc3ccccc3)ncn2)c1N
AC50 [1]: 14.1 µM (inconclusive)
AC50 ([4]; read-out: AC50): 31.6 µM (inconclusive)

Cc1ccc(S(=O)(=O)N(C(=N)N)c2nc(N(C)C)nc(N(C)C)n2)cc1
EC50 [2]: 879 nM (active)
EC50 [3]: > 60 µM (not active)

C[C@@H](Cc1ccccc1)NCCC(c1ccccc1)c1ccccc1
AC50 [1]: 15.8 µM (inconclusive)
AC50 ([4]; read-out: AC50): 7.94 µM (inconclusive)

CCOc1ccc(CN2CCN(Cc3cccc4nonc34)CC2CCO)cc1 (stereo unspecified)
EC50 [2]: 559 nM (active)
EC50 [3]: > 60 µM (not active)

CCCCCCn1c(=O)c(C(=O)Nc2c(C)n(C)n(-c3ccccc3)c2=O)c(O)c2ccccc21
EC50 [5]: 3.09 µM (active)
EC50 [6]: 8.06 µM (active)
EC50 [7]: 3.63 µM (active)

Oc1ccc(-c2nc3c4c(ncn3n2)-c2ccccc2CC42CCCC2)cc1
EC50 [5]: 0.909 µM (active)
EC50 [6]: 0.936 µM (active)

CCSc1n[nH]c2c3cccc(C)c3nc-2n1
EC50 [8]: > 120 µM (not active)
EC50 [9]: 2.08 µM (active)

CCN1CCC2(CC1)NC(CO)(CO)CO2
AC50 [4]: inconclusive

CCN=C(S)NNC(=O)c1cc(C)on1
AC50 ([4]; read-out: AC50): 7.94 µM (inconclusive)

Cc1c(Cl)cccc1NC(=O)COC(=O)c1c2c(nc3ccccc13)CCN(Cc1ccccc1)C2
EC50 [2]: 1630 nM (active)
EC50 [3]: > 60 µM (not active)

CC(C)(C)CNC(CO)C12CC3CC(CC(C3)C1)C2 (stereo unspecified)
AC50 ([4]; read-out: AC50): 15.8 µM (inconclusive)

COc1ccc(CCNC(=O)CCCCCN2C(=O)c3ccccc3C2=O)cc1
AC50 [1]: 25.1 µM (inconclusive)

c1ccc(Nc2ccc3c4c(cccc24)CC3)cc1
EC50 [2]: 970 nM (active)
EC50 [3]: 59.5 µM (active)

CCOC(=O)c1ccc(OC(=O)CCCCCNC(=N)N)cc1
AC50 [1]: 12.6 µM (inconclusive)

COc1ccc(-c2cc3n(n2)CCc2nc4ccccc4n2-3)cc1
EC50 [8]: 12.5 µM (active)
EC50 [9]: 10.5 µM (active)

O=C(NCc1ccccc1)C(=O)NCC1OCCN1S(=O)(=O)c1ccc([N+](=O)[O-])cc1 (stereo unspecified)
EC50 [2]: 782 nM (active)
EC50 [3]: > 60 µM (not active)

CCCCCCOC(=O)C(C#N)c1nc2ccccc2nc1N1CCN(C)CC1 (stereo unspecified)
EC50 [2]: 2570 nM (active)
EC50 [3]: 11.3 µM (active)

COC(=O)[C@@]1(Cc2ccc(F)cc2)[C@@H]2[C@@H](CC(=O)[C@H]2CC(=O)C(=O)N(C)C)CN1C(=O)c1ccccc1
AC50 ([4]; read-out: AC50): 39.8 µM (inconclusive)

COc1ccccc1OCCCn1c(C)c(C#N)c2ccccc21
EC50 [5]: 21.2 µM (active)
EC50 [6]: > 150 µM (not active)
EC50 [7]: 23.2 µM (active)

Cc1cccc(N2CCN(C(=O)C34CC5CC(CC(C5)C3)C4)CC2)c1C
EC50 [5]: 3.81 µM (active)
EC50 [6]: 11.3 µM (active)
EC50 [7]: 15.2 µM (active)

COC(=O)C1=CN(c2ccc(OC)cc2)C=C(C(=O)OC)C1c1ccc([N+](=O)[O-])cc1
EC50 [2]: 1940 nM (active)
EC50 [3]: > 30 µM (not active)

Cn1c(O)c(C(c2ccccn2)c2c(O)n(C)c(=S)[nH]c2=O)c(=O)[nH]c1=S
AC50 ([4]; read-out: AC50): 0.316 µM (inconclusive)

Cc1ccc(C)c(C(=O)COC(=O)c2cc(Cl)nc3ccccc23)c1
EC50 [5]: 60.6 µM (active)
EC50 [6]: > 150 µM (not active)
EC50 [7]: 19.4 µM (active)

O=C(NCCCN1CCCC1)C1CCN(C(=O)c2cc3sccc3n2Cc2ccc(F)cc2)CC1
EC50 [2]: 1320 nM (active)
EC50 [3]: > 60 µM (not active)

Cc1cc(NC(=O)/C=C/c2ccccc2Cl)no1
EC50 [8]: 9.55 µM (active)
EC50 [9]: 118 µM (active)

CC1c2ccccc2SC(CCCN(C)C)c2ccccc21 (stereo unspecified)
EC50 [2]: 639 nM (active)
EC50 [3]: > 60 µM (not active)

CCn1ccc(C(=O)NC2C(=O)N3C(C(=O)O)=C(C)CSC23)n1 (stereo unspecified)
AC50 ([4]; read-out: AC50): 14.1 µM (inconclusive)

N=C(Cc1ccc(Cl)cc1)NOC(=O)c1cccc2ccccc12
EC50 [2]: 810 nM (active)
EC50 [3]: > 60 µM (not active)

COc1ccc(-c2nnc(NC(=O)C3CCCN3S(=O)(=O)c3cccs3)o2)cc1 (stereo unspecified)
EC50 [5]: > 150 µM (not active)
EC50 [6]: > 150 µM (not active)
EC50 [7]: > 150 µM (not active)

Cc1c(C(=O)Nc2cccc([N+](=O)[O-])c2)csc1-c1ccccc1
EC50 [2]: 1430 nM (active)
EC50 [3]: > 60 µM (not active)

CN1C2C=C3C(C#N)=C(N)C(C#N)(C#N)[C@H](c4c(F)cccc4F)[C@H]3C1CC2 (stereo partly specified)
AC50 ([4]; read-out: AC50): 22.4 µM (inconclusive)

CCN1CC=C2C(C#N)=C(N)C(C#N)(C#N)[C@H](c3ccoc3)[C@H]2C1
AC50 [1]: 39.8 µM (inconclusive)
AC50 ([4]; read-out: AC50): 39.8 µM (inconclusive)

COc1ccc(-c2cnnn2-c2ccc(NC(=O)c3ccco3)cc2)cc1OC
AC50 [1]: 14.1 µM (inconclusive)

Cc1cc(=O)c(C(=O)O)cn1Nc1ccc(Cl)cc1
EC50 [5]: 3.15 µM (active)
EC50 [6]: 14.5 µM (active)
EC50 [7]: > 150 µM (not active)

CC1(C)Cc2c(sc3nc(-c4cc5ccccc5o4)n(N)c(=O)c23)CO1
EC50 [8]: > 120 µM (inconclusive)
EC50 [9]: 0.817 µM (active)

Cc1ccc(-c2[nH]nc(N)c2N=Nc2ccccc2C)cc1
EC50 [5]: 2.63 µM (active)
EC50 [6]: 8.03 µM (active)
EC50 [7]: > 150 µM (not active)

CS(=O)(=O)c1ccc(/C=N\NC(N)=S)cc1
AC50 [1]: 5.01 µM (inconclusive)

CC1CCCN(C(=O)C(=O)c2cn(CC(=O)N3CCCCCC3)c3ccccc23)C1 (stereo unspecified)
EC50 [2]: 765 nM (active)
EC50 [3]: > 60 µM (not active)

CC(C)CN=C(S)N1CCN(C)CC1
AC50 ([4]; read-out: AC50): 39.8 µM (inconclusive)

COc1cc(/C=C/C(=O)OC2CC3CCC2(C)C3(C)C)ccc1O (stereo unspecified)
EC50 [5]: 6.88 µM (active)
EC50 [6]: 6.7 µM (active)
EC50 [7]: 7.32 µM (active)

COC(=O)[C@@H]1CC[C@H](C)[C@@H](c2ccc(C)cc2)N1C(=O)c1ccc(/C=N\OC[C@@H](C)[C@H](OCc2ccccc2)C(C)C)cc1
AC50 ([4]; read-out: AC50): 6.31 µM (inconclusive)

O=C(Nc1cccc(Cl)c1N1CCCC1)c1ccc(Br)o1
EC50 [5]: 4.12 µM (active)
EC50 [6]: 6.85 µM (active)
EC50 [7]: > 150 µM (not active)

COc1ccc(-n2c(=O)c(CCc3ccccc3)nc3cnc(N4CCOCC4)nc32)cc1
AC50 [1]: 15.8 µM (inconclusive)
AC50 ([4]; read-out: AC50): 25.1 µM (inconclusive)

O=c1c2cc(N3CCOCC3)ccc2[nH]c(=S)n1CCc1ccccc1
EC50 [5]: 0.447 µM (active)
EC50 [6]: 12.3 µM (active)
EC50 [7]: > 150 µM (not active)

COc1ccc(NC(=O)C2CC(=O)NC3=C2C(=O)CC(C)(C)C3)cc1 (stereo unspecified)
AC50 ([4]; read-out: AC50): 39.8 µM (inconclusive)

Cc1cc(C)c(S(C)(=O)=O)c(Oc2ccc(F)cc2)n1
AC50 ([4]; read-out: AC50): 20 µM (inconclusive)

Cc1cc2c(O)nc(N)nc2nc1C
AC50 [1]: 6.31 µM (inconclusive)

O=C(CCC(=O)Nc1cc(C(F)(F)F)ccc1Cl)N/N=C\c1cc([N+](=O)[O-])ccc1O
EC50 [5]: 0.675 µM (active)
EC50 [6]: 1.44 µM (active)

CSc1nc(O)c2c(n1)N=C(C)/C(=C(/O)OC(C)C)C2c1ccncc1 (stereo unspecified)
AC50 [1]: 20 µM (inconclusive)

C[C@H]1[C@H](C)CC[C@]2(C)CC[C@]3(C)C(=CC[C@@H]4[C@@]5(C)CC[C@@H](O)[C@](C)(C(=O)O)[C@@H]5CC[C@]43C)[C@H]12 [BOSWELLIC ACID]
EC50 [5]: 0.705 µM (active)
EC50 [6]: 0.963 µM (active)

— ChEMBL document CHEMBL1201862, “PubChem BioAssay data set” (2004)
